Laboratory results published in patent US20260053812A1, “METHODS OF TREATING HYPERTENSION WITH A COMBINATION OF AN ALDOSTERONE SYNTHASE INHIBITOR AND A DIURETIC” (Mineralys Therapeutics, Inc., priority 2022, published 2026).

Assay: Adverse events (TEAEs, SAEs, AESI; Safety Analysis Set)
Description: In analyses performed on the Safety Analysis Set, subjects will be analyzed according to their actual treatment received.

Compound: CC(=O)N[C@H]1CC[C@H](NC(=O)CN2CCN(c3nncc(-c4ccc(C)cc4)n3)CC2)CC1 [Compound A HBr]
- On-treatment TEAE, Vascular disorders, Mild, % (Part 1, 12.5 mg QD (N = 23)): (8.7) %
- On-treatment TEAE, Vascular disorders, Moderate, % (Part 1, 12.5 mg QD (N = 23)): (4.3) %
- Subjects with any On-treatment TEAEs leading to withdrawal from study drug, % (Part 1, 12.5 mg QD (N = 23)): (17.4) %
- Subjects with any On-treatment TEAEs, Mild, % (Part 1, 12.5 mg QD (N = 23)): (52.2) %
- Subjects with any On-treatment TEAEs, Moderate, % (Part 1, 12.5 mg QD (N = 23)): (13.0) %
- Subjects with any On-treatment TEAEs, Severe, % (Part 1, 12.5 mg QD (N = 23)): (4.3) %
- TEAE leading to permanent discontinuation from study drug, Cardiac disorders, % (Part 1, 12.5 mg QD (N = 23)): (4.3) %
- TEAE leading to permanent discontinuation from study drug, Coronary artery disease, % (Part 1, 12.5 mg QD (N = 23)): (4.3) %
- TEAE leading to permanent discontinuation from study drug, Dizziness, % (Part 1, 12.5 mg QD (N = 23)): (4.3) %
- TEAE leading to permanent discontinuation from study drug, Hyperkalaemia, % (Part 1, 12.5 mg QD (N = 23)): (8.7) %
- TEAE leading to permanent discontinuation from study drug, Metabolism and nutrition disorders, % (Part 1, 12.5 mg QD (N = 23)): (8.7) %
- TEAE leading to permanent discontinuation from study drug, Nervous system disorders, % (Part 1, 12.5 mg QD (N = 23)): (4.3) %
- On-treatment TEAE, Blood and lymphatic system disorders, % (Part 1, 25 mg BID (N = 30)): (6.7) %
- On-treatment TEAE, Blood and lymphatic system disorders, Mild, % (Part 1, 25 mg BID (N = 30)): (6.7) %
- On-treatment TEAE, Cortisol decreased, % (Part 1, 25 mg BID (N = 30)): (3.3) %
- On-treatment TEAE, Cortisol decreased, Mild, % (Part 1, 25 mg BID (N = 30)): (3.3) %
- On-treatment TEAE, Gastrointestinal disorders, % (Part 1, 25 mg BID (N = 30)): (3.3) %
- On-treatment TEAE, Gastrointestinal disorders, Mild, % (Part 1, 25 mg BID (N = 30)): (3.3) %
- On-treatment TEAE, Headache, % (Part 1, 25 mg BID (N = 30)): (6.7) %
- On-treatment TEAE, Headache, Mild, % (Part 1, 25 mg BID (N = 30)): (6.7) %
- On-treatment TEAE, Hyperkalaemia, % (Part 1, 25 mg BID (N = 30)): (30.0) %
- On-treatment TEAE, Hyperkalaemia, Mild, % (Part 1, 25 mg BID (N = 30)): (23.3) %
- On-treatment TEAE, Hyperkalaemia, Moderate, % (Part 1, 25 mg BID (N = 30)): (6.7) %
- On-treatment TEAE, Hypertension, % (Part 1, 25 mg BID (N = 30)): (3.3) %
- On-treatment TEAE, Infections and infestations, % (Part 1, 25 mg BID (N = 30)): (10.0) %
- On-treatment TEAE, Infections and infestations, Mild, % (Part 1, 25 mg BID (N = 30)): (6.7) %
- On-treatment TEAE, Infections and infestations, Moderate, % (Part 1, 25 mg BID (N = 30)): (3.3) %
- On-treatment TEAE, Investigations, % (Part 1, 25 mg BID (N = 30)): (10.0) %
- On-treatment TEAE, Investigations, Mild, % (Part 1, 25 mg BID (N = 30)): (6.7) %
- On-treatment TEAE, Investigations, Moderate, % (Part 1, 25 mg BID (N = 30)): (3.3) %
- On-treatment TEAE, Metabolism and nutrition disorders, % (Part 1, 25 mg BID (N = 30)): (33.3) %
- On-treatment TEAE, Metabolism and nutrition disorders, Mild, % (Part 1, 25 mg BID (N = 30)): (26.7) %
- On-treatment TEAE, Metabolism and nutrition disorders, Moderate, % (Part 1, 25 mg BID (N = 30)): (6.7) %
- On-treatment TEAE, Nervous system disorders, % (Part 1, 25 mg BID (N = 30)): (10.0) %
- On-treatment TEAE, Nervous system disorders, Mild, % (Part 1, 25 mg BID (N = 30)): (6.7) %
- On-treatment TEAE, Urinary tract infection, % (Part 1, 25 mg BID (N = 30)): (10.0) %
- On-treatment TEAE, Urinary tract infection, Mild, % (Part 1, 25 mg BID (N = 30)): (6.7) %
- On-treatment TEAE, Vascular disorders, % (Part 1, 25 mg BID (N = 30)): (3.3) %
- On-treatment TEAE, Vascular disorders, Mild, % (Part 1, 25 mg BID (N = 30)): (3.3) %
- Subjects with any On-treatment TEAEs leading to withdrawal from study drug, % (Part 1, 25 mg BID (N = 30)): 3.3%
- Subjects with any On-treatment TEAEs, Mild, % (Part 1, 25 mg BID (N = 30)): (46.7) %
- Subjects with any On-treatment TEAEs, Moderate, % (Part 1, 25 mg BID (N = 30)): (13.3) %
- TEAE leading to permanent discontinuation from study drug, Hyperkalaemia, % (Part 1, 25 mg BID (N = 30)): 3.3%
- TEAE leading to permanent discontinuation from study drug, Hypertension, % (Part 1, 25 mg BID (N = 30)): 3.3%
- TEAE leading to permanent discontinuation from study drug, Metabolism and nutrition disorders, % (Part 1, 25 mg BID (N = 30)): 3.3%
- TEAE leading to permanent discontinuation from study drug, Vascular disorders, % (Part 1, 25 mg BID (N = 30)): 3.3%
- On-treatment TEAE, Cardiac disorders, % (Part 1, 50 mg QD (N = 28)): (3.6) %
- On-treatment TEAE, Dizziness, % (Part 1, 50 mg QD (N = 28)): (7.1) %
- On-treatment TEAE, Gastrointestinal disorders, % (Part 1, 50 mg QD (N = 28)): (3.6) %
- On-treatment TEAE, Gastrointestinal disorders, Mild, % (Part 1, 50 mg QD (N = 28)): (3.6) %
- On-treatment TEAE, General disorders and administration site conditions, % (Part 1, 50 mg QD (N = 28)): (7.1) %
- On-treatment TEAE, General disorders and administration site conditions, Mild, % (Part 1, 50 mg QD (N = 28)): (3.6) %
- On-treatment TEAE, Headache, % (Part 1, 50 mg QD (N = 28)): (3.6) %
- On-treatment TEAE, Headache, Mild, % (Part 1, 50 mg QD (N = 28)): (3.6) %
- On-treatment TEAE, Hyperkalaemia, % (Part 1, 50 mg QD (N = 28)): (10.7) %
- On-treatment TEAE, Hyperkalaemia, Mild, % (Part 1, 50 mg QD (N = 28)): (10.7) %
- On-treatment TEAE, Hypertension, % (Part 1, 50 mg QD (N = 28)): (7.1) %
- On-treatment TEAE, Hypertension, Moderate, % (Part 1, 50 mg QD (N = 28)): (7.1) %
- On-treatment TEAE, Infections and infestations, % (Part 1, 50 mg QD (N = 28)): (7.1) %
- On-treatment TEAE, Infections and infestations, Moderate, % (Part 1, 50 mg QD (N = 28)): (7.1) %
- On-treatment TEAE, Investigations, % (Part 1, 50 mg QD (N = 28)): (3.6) %
- On-treatment TEAE, Investigations, Mild, % (Part 1, 50 mg QD (N = 28)): (3.6) %
- On-treatment TEAE, Metabolism and nutrition disorders, % (Part 1, 50 mg QD (N = 28)): (17.9) %
- On-treatment TEAE, Metabolism and nutrition disorders, Mild, % (Part 1, 50 mg QD (N = 28)): (17.9) %
- On-treatment TEAE, Nervous system disorders, % (Part 1, 50 mg QD (N = 28)): (7.1) %
- On-treatment TEAE, Nervous system disorders, Mild, % (Part 1, 50 mg QD (N = 28)): (3.6) %
- On-treatment TEAE, Urinary tract infection, % (Part 1, 50 mg QD (N = 28)): (7.1) %
- On-treatment TEAE, Urinary tract infection, Mild, % (Part 1, 50 mg QD (N = 28)): (3.6) %
- On-treatment TEAE, Vascular disorders, % (Part 1, 50 mg QD (N = 28)): (7.1) %
- On-treatment TEAE, Vascular disorders, Moderate, % (Part 1, 50 mg QD (N = 28)): (7.1) %
- Subjects with any On-treatment TEAEs, Mild, % (Part 1, 50 mg QD (N = 28)): (14.3) %
- Subjects with any On-treatment TEAEs, Moderate, % (Part 1, 50 mg QD (N = 28)): (21.4) %
- On-treatment TEAE, Blood creatinine increased, % (Part 1, 100 mg QD (N = 30)): (10.0) %
- On-treatment TEAE, Blood creatinine increased, Mild, % (Part 1, 100 mg QD (N = 30)): (10.0) %
- On-treatment TEAE, Gastrointestinal disorders, % (Part 1, 100 mg QD (N = 30)): (6.7) %
- On-treatment TEAE, Gastrointestinal disorders, Mild, % (Part 1, 100 mg QD (N = 30)): (6.7) %
- On-treatment TEAE, Glomerular filtration rate decreased, % (Part 1, 100 mg QD (N = 30)): (16.7) %
- On-treatment TEAE, Glomerular filtration rate decreased, Mild, % (Part 1, 100 mg QD (N = 30)): (13.3) %
- On-treatment TEAE, Hyperkalaemia, % (Part 1, 100 mg QD (N = 30)): (26.7) %
